Data on 10 compounds can be found in US10774049B2, “PU.1 inhibitors” (Albert Einstein College of Medicine, priority 2016, dated 2020).

Assay [1] concerns PU.1 URE−/− AML cell line. Put plainly: Cell viability/growth of PU.1 URE−/− AML cells. It counts as cell-based, murine. As to conditions: Mus musculus; read-out: IC50 URE−/−. The procedure:
(§1) FIG. 2A-2F. PU.1 inhibition decreases cell growth and increases apoptosis of PU.1^1″ leukemic cells. (A) Chemical structures of heterocyclic diamidines DB1976, DB2115 and DB2313 used in this study. (B) Relative cell viability of URE−/− cells and BAF3 cells after treatment with increasing concentrations of vehicle or small molecules. Cell viability was assessed after 48 h. Data represent means of technical triplicate from one representative experiment; fold change compared to Vehicle is shown. (C) Cell proliferation assay of URE−/− after treatment with DB1976 (n=5), DB2115 (n=3), DB2313 (n=3), of MOLM13 cells (n=3), and THP1 cells (n=3). Cell counting was performed every 24 h during 4 days. Data represent means±SD of technical triplicate from one representative experiment. Forward strand: SEQ ID NO:3, and Reverse strand: SEQ ID NO:4; derived from the λB motif from the murine Ig lambda 2-4 enhancer, a known native PU.1-dependent gene and specific binding site for PU.1. (D) Clonogenic capacities of URE−/− cells after treatment with DB1976 (n=5), DB2115 (n=3) and DB2313 (n=4) in the first plating, and after serial replatings (n=3). Data represent means±SD of technical triplicate from one representative experiment. (E) Apoptotic cells (Annexin-V+Dapi−) fraction in URE−/− cells after 48 h of treatment with DB1976 (n=6), DB2115 (n=6) and DB2313 (n=3). Data represent the means±SD of independent experiments; fold change compared to Vehicle is shown. *P<0.05, **P<0.01, ***P<0.001, ****P<0.0001 (F) Dose dependent inhibitor of PU.1-dependent transactivation.
(§2) To determine if our PU.1 inhibitors have an effect on PU.1^low-induced AML cells, we treated the PU.1 URE^−/− AML cell line with compounds at different concentrations. Treatment with the drugs led to a profound decrease in growth of PU.1 URE^−/− AML cells after 48 h whereas it had only minimal or no effects on control cells with normal PU.1 levels (BaF3), even at very high doses (FIG. 3A). […] Similar to our observations with PU.1-directed shRNAs, treatment with pharmacological PU.1 inhibitors led to a significant 1.6-, 2- and 3.5-fold increase of apoptotic cells with DB1976, DB2115 and DB2313, respectively, in murine PU.1 URE^−/− AML cells (FIG. 3C), and similar effects in human MOLM13 cells.

In another assay the test system is BaF3 cells. Put plainly: Cell viability of BaF3 control cells. In kind it is cell-based, murine. The conditions noted are these: Mus musculus, NR = Not Reached. As to the method:
as §1, §2

Each structure is given as a SMILES string. pIC50: −log10 of the molar value.

`N=C(N)c1ccc2nc(-c3ccc(OCCOCCOc4ccc(-c5nc6ccc(C(=N)N)cc6[nH]5)cc4)cc3)[nH]c2c1` [DB2146]: the pIC50 in assay [1] was 5.30; in the assay on BaF3 cells, 4.17.
Take `CC(C)NC(=N)c1ccc2nc(-c3ccc(OCCOCCOc4ccc(-c5nc6ccc(C(=N)NC(C)C)cc6[nH]5)cc4)cc3)[nH]c2c1` [DB2295]: in assay [1], the pIC50 is 4.98.
For `Cn1c(-c2ccc(-c3ccc(C(=N)N)cc3)s2)nc2cc(-c3ccc(C(=N)N)cc3)ccc21` [DB2457], in assay [1], the pIC50 was 4.78.
As for `N=C(N)c1ccc2nc(-c3ccc(Oc4ccc(Oc5ccc(-c6nc7ccc(C(=N)N)cc7[nH]6)cc5)cc4)cc3)[nH]c2c1` [DB2483], in assay [1], the pIC50 was 5.28.
Consider `N=C(N)c1ccc2nc(-c3ccc(OCC(F)(F)C(F)(F)Oc4ccc(-c5nc6ccc(C(=N)N)cc6[nH]5)cc4)cc3)[nH]c2c1` [DB2514], for which the pIC50 in assay [1] was 5.25; in the assay on BaF3 cells, 4.35.
`CC(C)NC(=N)c1ccc2nc(-c3ccc(OCc4cccc(COc5ccc(-c6nc7ccc(C(=N)NC(C)C)cc7[nH]6)cc5)n4)cc3)[nH]c2c1` [DB2302]: the pIC50 in assay [1] is 5.11.
Take `Cn1c(-c2ccc(OCCCOc3ccc(-c4nc5cc(C(=N)N)ccc5n4C)cc3)cc2)nc2cc(C(=N)N)ccc21` [DB2237]: the pIC50 in assay [1] was 5.36.
Take `Cn1c(-c2ccc(OCc3cccc(COc4ccc(-c5nc6cc(C(=N)N)ccc6n5C)cc4)n3)cc2)nc2cc(C(=N)N)ccc21` [DB2326]: the pIC50 in assay [1] is 5.72; in the assay with BaF3 cells, 4.32.
In the case of `CN(CCOc1ccc(-c2nc3ccc(C(=N)N)cc3[nH]2)cc1)CCOc1ccc(-c2nc3ccc(C(=N)N)cc3[nH]2)cc1` [DB2150], the values for the pIC50 (in assay [1]; with BaF3 cells) were 4.70 and 3.38, respectively.
On to `N=C(N)c1ccc2nc(-c3ccc(OCC(F)(F)C(F)(F)C(F)(F)COc4ccc(-c5nc6ccc(C(=N)N)cc6[nH]5)cc4)cc3)[nH]c2c1` [DB2355], for which the results for the pIC50 (in assay [1]; in the assay with BaF3 cells) were 5.77 and 4.31, respectively.
